Data set [1] in a line: Cytotoxicity against MDCK cells by MTS assay. The following applies: dog. The class given is toxicity, cell-based, Canis lupus familiaris. For orientation: Formazan colour is commonly taken as a measure of viable cells.
Data set [2] deals with Influenza A virus. Put plainly: Antiviral activity against influenza A virus A/PR/8/34 (H1N1) infected in MDCK cells by plaque assay. The class given is functional, organism-based.
The test system of data set [3] is HEK-293T. As to the kind of experiment: Cytotoxicity against human HEK293T cells by MTS assay. It is filed as functional.
In data set [4] the test system is Influenza A virus. As to the kind of experiment: Antiviral activity against influenza A virus A/Guangdong/1/2009 (H1N1) infected in MDCK cells by plaque assay. The class given is functional, organism-based.
For data set [5], the system named is Influenza A virus. Put plainly: Antiviral activity against influenza A virus A/Aichi/2/68 (H3N2) infected in MDCK cells by plaque assay. It is filed as functional, organism-based.
For data set [6], the system named is A549. As to the kind of experiment: Cytotoxicity against human A549 cells by MTS assay. The class given is functional.
Data set [7] has as its system Influenza A virus. As to the kind of experiment: Antiviral activity against Influenza A virus A (H1N1). The class given is functional, organism-based.
A short description of data set [8]: Cytotoxicity against MDCK cells. It is filed as toxicity, cell-based, Canis lupus familiaris. The following applies: dog.
For data set [9], the system named is Influenza A virus. As to the kind of experiment: Antiviral activity against influenza A virus A/California/07/2009 (H1N1) infected in MDCK cells assessed as reduction in cytopathic effect by fluorescence based analysis. It is filed as functional, organism-based. In general terms: Damage to the host cells serves as the signal in cytopathic effect assays.
Data set [10] has as its target Neuraminidase (Influenza A virus, UniProt B4URF0). As to the kind of experiment: Inhibition of influenza A virus neuraminidase.
Data set [11] relates to Influenza A virus. Put plainly: Antiviral activity against influenza A virus A/Udorn/1972 (H3N2) infected in MDCK cells assessed as reduction in cytopathic effect by fluorescence based analysis. The class given is functional, organism-based.
Data set [12] deals with Influenza A virus. As to the kind of experiment: Antiviral activity against influenza A virus A/California/07/2009 (H1N1) infected in MDCK cells assessed as reduction in cytopathic effect by DAPI staining based analysis. It is filed as functional, organism-based.
The nature of data set [13]: Cytotoxicity against HEK293T cells incubated for 48 hrs by Cell Titer-Glo assay. The following applies: human. The class given is toxicity, cell-based, HEK-293T.
Data set [14] has as its system Influenza A virus. Put plainly: Antiviral activity against influenza A virus A/Udorn/1972 (H3N2) infected in MDCK cells assessed as reduction in cytopathic effect by DAPI staining based analysis. It is filed as functional, organism-based.
Data set [15] relates to Influenza A virus. Put plainly: Antiviral activity against influenza A virus H5N1 (RG14) infected in MDCK cells assessed as reduction in cytopathic effect by fluorescence based analysis. It is filed as functional, organism-based.
In data set [16] the test system is Influenza A virus. As to the kind of experiment: Antiviral activity against influenza A virus A/Brisbane/59/2009 (H1N1) infected in MDCK cells assessed as reduction in cytopathic effect by fluorescence based analysis. It is filed as functional, organism-based.
Data set [17] has as its system Influenza A virus. As to the kind of experiment: Antiviral activity against influenza A virus H5N1 (RG14) infected in MDCK cells assessed as reduction in cytopathic effect by DAPI staining based analysis. The class given is functional, organism-based.
Data set [18] in a line: Cytotoxicity against HEK293T cells assessed as reduction in cell viability measured after 48 hrs by Cell-Titer Glo assay. The class given is toxicity, cell-based, HEK-293T. The following applies: human.
Data set [19] deals with Influenza A virus. As to the kind of experiment: Antiviral activity against influenza A virus A/Brisbane/59/2009 (H1N1) infected in MDCK cells assessed as reduction in cytopathic effect by DAPI staining based analysis. It is filed as functional, organism-based.
The subject of data set [20] is Influenza A virus. Put plainly: Antiviral activity against influenza A virus H1N1, A/PR/8/34. It is filed as functional, organism-based.
Data set [21] concerns Influenza A virus. Put plainly: Antiviral activity against influenza A virus H1N1, A/California/7/2009. The class given is functional, organism-based.
The nature of data set [22]: Cytotoxicity against MDCK cells assessed as reduction in cell viability. The class given is toxicity, cell-based, Canis lupus familiaris. The following applies: dog.
In data set [23] the test system is Influenza A virus. Put plainly: Antiviral activity against influenza A virus […], A/WSN/33. The class given is functional, organism-based.
Data set [24] deals with Influenza A virus. As to the kind of experiment: Antiviral activity against influenza A virus A/WSN/1933 (H1N1) infected in MDCK cells assessed as reduction in cytopathic effect by fluorescence based analysis. The class given is functional, organism-based.
Data set [25] can be described thus: Cytotoxicity against MDCK cells assessed as reduction in cell viability measured after 72 hrs by fluorescence based assay. The class given is toxicity, Canis lupus familiaris. The following applies: dog.
Data set [26] relates to Influenza A virus. As to the kind of experiment: Antiviral activity against Influenza A virus A/PR/8/34 (H1N1) infected in human A549 cells pretreated with cell for 3 hrs followed by viral infection and measured for 24 hrs. The class given is functional, organism-based.
The nature of data set [27]: Cytotoxicity against human A549 cells incubated for 48 hrs by neutral red uptake assay. The class given is toxicity, cell-based.
A short description of data set [28]: Cytotoxicity against MDCK cells assessed as reduction in cell viability measured after 72 hrs by MTT assay. The class given is toxicity, cell-based, Canis lupus familiaris. The following applies: dog.
Data set [29] deals with Influenza A virus. Put plainly: Antiviral activity against influenza A virus H5N1,A/Vietnam/1194/2004 infected in MDCK cells assessed as reduction in plaque formation incubated for 72 hrs by crystal violet staining based analysis. The class given is functional, organism-based. The following applies: H5N1,A/Vietnam/1194/2004, MDCK.
The test system of data set [30] is Influenza A virus. As to the kind of experiment: Antiviral activity against influenza A virus H1N1,A/WSN/1933 infected in MDCK cells assessed as reduction in plaque formation incubated for 72 hrs by crystal violet staining based analysis. It is filed as functional, organism-based. To be noted: H1N1,A/WSN/1933, MDCK.
For data set [31], the system named is Influenza A virus. As to the kind of experiment: Antiviral activity against Influenza A virus A/PR/8/34 (H1N1). It is filed as functional, organism-based.
For data set [32], the system named is Influenza B virus. Put plainly: Antiviral activity against Influenza B virus B/Yamagata. The class given is functional, organism-based.
In data set [33] the test system is Influenza A virus. Put plainly: Antiviral activity against Influenza A virus A/Brisbane/10/2007 (H3N2). It is filed as functional, organism-based.
Data set [34] has as its system Influenza B virus. Put plainly: Antiviral activity against Influenza B virus B/Victoria. It is filed as functional, organism-based.
In data set [35] the test system is Influenza A virus. Put plainly: Antiviral activity against influenza A H5N1 infected in MDCK cells assessed as viral growth inhibition measured for 12 to 72 hrs. It is filed as functional, organism-based.
Data set [36] is described as follows: Cytotoxicity against MDCK cells incubated for 72 hrs by CCK-8 assay. It is filed as toxicity, cell-based, Canis lupus familiaris. To be noted: dog.

A value given as a limit tells only on which side of the number the result lay.

Sequence of Neuraminidase (B4URF0 whole entry): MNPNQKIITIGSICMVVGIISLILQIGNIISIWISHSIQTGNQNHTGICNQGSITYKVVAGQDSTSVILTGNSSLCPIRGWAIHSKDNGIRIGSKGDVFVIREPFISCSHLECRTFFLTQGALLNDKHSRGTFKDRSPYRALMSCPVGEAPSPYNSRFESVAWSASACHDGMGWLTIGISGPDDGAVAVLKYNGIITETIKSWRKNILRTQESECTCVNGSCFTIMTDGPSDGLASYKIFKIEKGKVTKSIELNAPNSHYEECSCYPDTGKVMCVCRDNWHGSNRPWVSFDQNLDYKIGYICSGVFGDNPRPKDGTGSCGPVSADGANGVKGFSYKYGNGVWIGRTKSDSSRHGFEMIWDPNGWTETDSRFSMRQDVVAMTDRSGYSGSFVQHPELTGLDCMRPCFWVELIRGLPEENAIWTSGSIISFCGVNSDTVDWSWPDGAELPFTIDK

With `O=C(NC1CCCCCC1)c1cc2c(s1)-c1ccsc1CC2`, the CC50 in data set [1], in data set [3] and in data set [6] was over 100 µM throughout. Further, the values for the concentration for a half-maximal effect (EC50) in [2], in data set [4] and in data set [5] were 1.03 µM, 1.14 µM and 0.41 µM, respectively.
Compound `C=C1Cc2cc(C(F)(F)F)ccc2C(=O)NCC(C)(C)/C(=N/OC)CCCCOC1=O` yielded a concentration for a half-maximal effect (EC50) in data set [7] of 2.3 µM. In data set [8], this compound came in with a cytotoxic concentration (CC50) of 211 µM.
With `Cc1onc(-c2ccccc2Cl)c1C(=O)N1CCN(c2ccc([N+](=O)[O-])cc2Cl)CC1`, the EC50 in [9] worked out at 4.2 µM; in data set [11] it was 0.7 µM; in data set [12], 1.2 µM; in data set [14], 0.7 µM; in [15] it was 0.32 µM; in data set [16] it was 1.2 µM. Also, the EC50 in [17] is 0.32 µM; in [19] it was 1.2 µM. The same compound had a concentration for half-maximal inhibition (IC50) in data set [10] of 0.1 µM. Moreover, the cytotoxic concentration (CC50) at 48 h in data set [13] and in data set [18] was over 100 µM throughout.
Regarding `CC(=O)c1cc(O)ccc1O[C@@H]1O[C@H](CO)[C@@H](O)[C@H](OC(=O)c2cc(O)c(O)c(O)c2)[C@H]1OC(=O)c1cc(O)c(O)c(O)c1`, the EC50 in [20] came out at 30.7 µM; in data set [21], 30.7 µM; in data set [23], 24.6 µM. Moreover, in data set [22], the CC50 was over 1000 µM.
With `CN(C)S(=O)(=O)N1CCCC(CNC(=O)c2cccc(C(F)(F)F)c2)C1` (stereo not given), the concentration giving a half-maximal response (EC50) in [24] was found to be 0.28 µM. Also, in [25], the half-maximal cytotoxic concentration (CC50) at 72 h was over 100 µM.
Turning to `CCc1ccc(NC(=O)COC(=O)c2ccc3ccccc3n2)cc1`, the EC50 in [26] was found to be 51.6 µM. In data set [27], this compound gave a CC50 at 48 h of over 400 µM.
`CCc1ccccc1N(CC(=O)Nc1cc(C)cc(C)c1)S(C)(=O)=O`: the CC50 at 72 h in data set [28] was over 100 µM. Besides, the EC50 in [29] was 0.086 µM; in [30], 0.007 µM.
On to `COc1cccc(OC)c1C(=O)/C=C/c1nc(C)c(C)nc1C`, for which the EC50 in data set [31] came out at 2.74 µM; in data set [32], 2.41 µM; in data set [33], 3.44 µM; in [34] it was 3.13 µM. Besides, the CC50 in data set [8] was 41.5 µM.
With `CC(=O)c1cc(O)ccc1O[C@@H]1O[C@H](COC(=O)c2cc(O)c(O)c(O)c2)[C@@H](O)[C@H](OC(=O)c2cc(O)c(O)c(O)c2)[C@H]1O`, the figures for the concentration giving a half-maximal response (EC50) in data set [20], in data set [21] and in data set [23] were 20.2 µM, 29.2 µM and 11.6 µM, respectively. In addition, in data set [22], the half-maximal cytotoxic concentration (CC50) came to 964 µM.
The like results for `NC(=O)c1nc(F)cnc1O` [FAVIPIRAVIR] were, in that order, 37.4 µM, 37.4 µM, 37.4 µM and over 1000 µM.
`O[C@H]1[C@H]2c3cc4c(cc3CN3CCC(=C[C@@H]1O)[C@H]23)OCO4` [LYCORINE]: the EC50 in data set [35] is under 0.46 µM. Besides, in data set [36], it took 20.9 µM to reach half-maximal cytotoxicity (CC50 at 72 h).

As usually defined, the CC50 is the concentration giving 50% cytotoxicity. In general, EC50 refers to the concentration that produces a half-maximal response. Usually IC50 stands for the concentration needed to halve the response being measured.

The values above are taken from ChEMBL document CHEMBL5376009 (RSC Med Chem, 2024).
